Test results: ChEMBL document CHEMBL5247636, “Synthesis and antineoplastic activity of ethylene glycol phenyl aminoethyl ether derivatives as FOXM1 inhibitors” (Eur J Med Chem, 2022)

Legend:
[1] = tested on: SK-OV-3; experiment: cells; details: Homo sapiens
Description: Antiproliferative activity against human SK-OV-3 cells assessed as inhibition of cell growth measured after 22 to 70 hrs by CCK-8 assay

[2] = tested on: HCT-116; experiment: cells; details: Homo sapiens
Description: Antiproliferative activity against human HCT-116 cells assessed as inhibition of cell growth measured after 22 to 70 hrs by CCK-8 assay

[3] = tested on: HepG2; experiment: cells; details: Homo sapiens
Description: Antiproliferative activity against human HepG2 cells assessed as inhibition of cell growth measured after 22 to 70 hrs by CCK-8 assay

[4] = Cytotoxicity against human FTE-187 cells assessed as inhibition of cell growth upto 50 uM measured after 24 to 48 hrs by CCK-8 assay; type: toxicity, cell-based; details: fte-187, 50 µM, time 24-48 hrs
[5] = tested on: SK-OV-3; experiment: cells; details: Homo sapiens, SK-OV-3, 24 h
Description: Cytotoxicity against human SK-OV-3 cells expressing low FOXM1 assessed as inhibition of cell growth measured after 24 hrs by CCK-8 assay

[6] = tested on: SK-OV-3; experiment: Cytotoxicity against human SK-OV-3 cells assessed as inhibition of cell growth measured after 24 hrs by CCK-8 assay; type: toxicity, cell-based; details: sk-ov-3, 24 h
[7] = tested on: SK-OV-3; experiment: Down regulation of PLK1 expression in human SK-OV-3 cells by Western blotting analysis; type: functional, cell-based; details: dose 0.1-10 µg/ml
[8] = tested on: A2780; experiment: Cytotoxicity against human A2780 cells assessed as inhibition of cell growth measured after 24 hrs by CCK-8 assay; type: toxicity, cell-based; details: a2780, 24 h
[9] = tested on: SK-OV-3; experiment: Down regulation of CDC25B expression in human SK-OV-3 cells by Western blotting analysis; type: functional, cell-based; details: dose 0.1-10 µg/ml

| IC50 [1] [µM] | Compound | also measured |
| --- | --- | --- |
| 7.37 | c1ccc(COc2ccc(OCCOCCNC3CCCCC3)cc2)cc1 | – |
| 45 | O=Cc1ccc(COc2ccc(OCCOCCNC3CCCC3)cc2)cc1 | – |
| 15.7 | COc1ccc(COc2ccc(OCCOCCNC3CCCC3)cc2)cc1 | – |
| 7.46 | c1ccc(COc2ccc(OCCOCCNC3CCCCCC3)cc2)cc1 | – |
| > 100 | O=C(O)c1cccc(COc2ccc(OCCOCCNC3CCCC3)cc2)c1 | – |
| 17.2 | Cc1ccc(COc2ccc(OCCOCCNC3CCCC3)cc2)cc1 | – |
| 24.8 | c1ccc(COc2ccc(OCCOCCNC3CCCC3)cc2)cc1 | IC50 [2]: 12.9 µM; IC50 [3]: 25.4 µM |
| 45.5 | COC(=O)c1cccc(COc2ccc(OCCOCCNC3CCCC3)cc2)c1 | – |
| 7.67 | Clc1ccc(COc2ccc(OCCOCCNC3CCCC3)cc2)cc1 | – |
| 6.99 | COC(=O)c1ccc(COc2ccc(OCCOCCNC3CCCC3)cc2)cc1 | – |
| 25 | c1ccc(COc2ccc(OCCOCCNC3CCC3)cc2)cc1 | – |
| 6.22 | COC(=O)c1ccc(COc2ccc(OCCOCCNC3CCCCC3)cc2)cc1 | IC50 [2]: 5.3 µM; IC50 [3]: 30.3 µM |
| 31.7 | Nc1ccc(COc2ccc(OCCOCCNC3CCCC3)cc2)cc1 | – |
| 15.4 | O=[N+]([O-])c1cccc(COc2ccc(OCCOCCNC3CCCC3)cc2)c1 | – |
| > 100 | O=C(O)c1ccc(COc2ccc(OCCOCCNC3CCCC3)cc2)cc1 | – |
| 5.37 | O=[N+]([O-])c1ccccc1COc1ccc(OCCOCCNC2CCCC2)cc1 | – |
| 10 | c1ccc(COc2ccc(COc3ccc(OCCOCCNC4CCCC4)cc3)cc2)cc1 | – |
| 10.8 | Nc1cccc(COc2ccc(OCCOCCNC3CCCC3)cc2)c1 | – |
| > 100 | O=C(O)c1ccccc1COc1ccc(OCCOCCNC2CCCC2)cc1 | – |
| 14 | Nc1ccccc1COc1ccc(OCCOCCNC2CCCC2)cc1 | – |
| 47.2 | c1ccc(COc2ccc(OCCOCCNC3CC3)cc2)cc1 | – |
| 2.65 | Clc1ccc(COc2ccc(OCCOCCNC3CCCCC3)cc2)cc1 | Activity [4]: Non-Toxic; IC50 [5]: 65.4 µM; IC50 [2]: 2.69 µM; Activity [6]: Toxic; Activity [7]: Dose-Dependent Effect; Activity [8]: Toxic; Activity [9]: Dose-Dependent Effect; IC50 [3]: 15.1 µM |
| 20.3 | O=[N+]([O-])c1ccc(COc2ccc(OCCOCCNC3CCCC3)cc2)cc1 | – |

Continued, compound first:

| Compound | IC50 [1] [µM] | also measured |
| --- | --- | --- |
| c1ccc(COc2ccccc2OCCOCCNC2CCCC2)cc1 | 40.7 | – |
| c1ccc(COc2ccc(OCCOCCNC3CCOC3)cc2)cc1 (stereo not given) | 48 | – |
| c1cc2c(cc1OCCOCCNC1CCCC1)CCCC2 | 31.9 | – |
| c1ccc(COc2ccc(OCCOCCNc3ccncc3)cc2)cc1 | 20.6 | – |
| COC(=O)c1ccccc1COc1ccc(OCCOCCNC2CCCC2)cc1 | > 100 | – |
| O=[N+]([O-])c1ccccc1COc1ccc(OCCOCCNC2CCCCC2)cc1 | 2.88 | IC50 [2]: 11.1 µM; IC50 [3]: 25.5 µM |
| CN(C)CCOCCOc1ccc(OCc2ccccc2)cc1 | 11.9 | – |
| c1ncn(-c2ccc(OCCOCCNC3CCCC3)cc2)n1 | > 100 | – |
| COc1cc(OCCOCCNC2CCCC2)ccc1OCc1ccccc1 | 44.6 | – |
| CC(C)(C)OC(=O)n1ccc(NCCOCCOc2ccc(OCc3ccccc3)cc2)c1 | 13 | – |
| Nc1c(C(=O)Nc2ccc(F)cc2)sc2nc(-c3cccs3)cc(C(F)(F)F)c12 | 51.4 | IC50 [2]: 86.1 µM; IC50 [3]: 70.5 µM |
| OCCOCCOCCOc1ccc(OCc2ccccc2)cc1 | 59.4 | – |
| COc1ccc(OCCOCCNC2CCCC2)cc1 | 99.1 | – |
| CCOc1ccc(OCCOCCNC2CCCC2)cc1 | 90.5 | – |
| c1ccc(COc2ccc(COc3ccc(OCCOCCNC4CCCCC4)cc3)cc2)cc1 | 8.08 | IC50 [2]: 4.35 µM; IC50 [3]: 18.1 µM |
| c1ccc(COc2ccc(OCCOCCOC3CCCC3)cc2)cc1 | > 100 | – |
| c1ccc(COc2ccc(OCCOCCNc3cc[nH]c3)cc2)cc1 | 11.3 | – |
| c1ccc2cc(OCCOCCNC3CCCC3)ccc2c1 | 40.6 | – |
| c1ccc(COc2ccc(OCCOCCNc3ccccc3)cc2)cc1 | > 100 | – |
